Experiments:
[1] = tested on: human skin fibroblast cultures; test: Total ROS generation in skin fibroblasts, DCFDA fluorescent probe; type: cell-based
Description: (§1) The anti-oxidative action of indoleacetyl phenylalanine was tested against reactive oxygen species (ROS) using human skin fibroblast cultures. Total ROS generation in skin fibroblasts was measured using the fluorescent dye dichlorofluorescin diacetate (DCFDA) as a probe. DCFDA readily diffuses through cell membranes and is enzymatically hydrolyzed by intracellular esterase to become non-fluorescent dichlorofluorescin (DCFH), which is then oxidized by reactive species (oxidants) to highly fluorescent […] (DCF). Increased antioxidant activity within a cell is marked by a reduction in the fluorescent DCF.
(§2) Positive results were obtained with fibroblasts incubated in both serum-containing and serum-free media (serum proteins, e.g., albumin, can act as antioxidants and skew test results).

skin fibroblasts [2] = test: t-butyl hydroperoxide (t-BHP) induced ROS activity; type: cell-based, human; details: serum-free media
Description: as §1

skin fibroblasts [3] = test: Cell viability of skin fibroblasts during ROS test; type: cell-based, human
Description: as §2

[4] = tested on: nitric oxide synthase (iNOS); test: iNOS suppression, native and activated states; type: cell-based; details: 3-12 μM
Source text: Following previous leads on indoleacetyl phenylalanine's finding as a potent anti-free radical substance, additional experimental evidence was sought to strengthen the earlier findings. Focus at this time was placed on nitric oxide synthase (iNOS), which is the key enzyme for generating a destructive oxidant, nitric oxide. Since this enzyme existed in native and activated states, it was pertinent to check both the enzyme activities to ascertain the inhibitory action of indoleacetyl phenylalanine.

fibroblasts = test: Cell proliferation / cell viability, MTT method; type: cell-based
Description: Furthermore, to investigate the effects of indole derivatives on cell proliferation as a biological marker, cell viability was assayed using the MTT method.

Cu/ZnSOD = Cu/ZnSOD gene expression by Western blotting; type: cell-based; details: 15 and 30 μM; human skin fibroblasts
Description: (§3) The antioxidant effects of indoleacetyl phenylalanine was also tested with respect to the production of antioxidant enzymes by means of differential gene expression in human skin fibroblasts. The experiment was conducted with respect to gene expression related to two major defense enzymes, Superoxide Dismutase (SOD) and catalase. […] Gene expression for both enzymes was stimulated at indoleacetyl phenylalanine concentrations of 15 and 30 μM.

fibroblast COX-2 enzymes = target: T1, fibroblast COX-2 enzymes (Homo sapiens, UniProt P35354); test: Inhibition of fibroblast COX-2 enzymes; type: cell-based
T1 construct: endogenous in cells
T1 sequence (P35354 18-604): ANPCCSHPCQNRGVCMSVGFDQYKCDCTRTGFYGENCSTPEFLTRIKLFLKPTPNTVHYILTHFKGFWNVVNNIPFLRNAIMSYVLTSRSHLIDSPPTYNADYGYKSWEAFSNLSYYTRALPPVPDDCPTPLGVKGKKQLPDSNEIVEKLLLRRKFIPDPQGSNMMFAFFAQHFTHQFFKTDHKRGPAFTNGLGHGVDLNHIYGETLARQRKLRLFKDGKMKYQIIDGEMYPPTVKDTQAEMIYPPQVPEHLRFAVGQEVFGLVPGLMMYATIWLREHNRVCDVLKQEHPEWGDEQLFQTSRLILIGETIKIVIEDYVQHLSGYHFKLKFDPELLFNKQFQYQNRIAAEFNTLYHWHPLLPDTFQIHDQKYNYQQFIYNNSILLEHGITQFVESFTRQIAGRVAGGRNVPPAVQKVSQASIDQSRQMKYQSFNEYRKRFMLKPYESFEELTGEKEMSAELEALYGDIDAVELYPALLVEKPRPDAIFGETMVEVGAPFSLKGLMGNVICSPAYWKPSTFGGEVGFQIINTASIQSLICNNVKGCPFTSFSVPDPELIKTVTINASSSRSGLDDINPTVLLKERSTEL

catalase = test: Catalase gene expression by Western blotting; type: cell-based; details: 15 and 30 μM, particularly increased at 30 μM; human skin fibroblasts
Description: as §3

[5] = tested on: cultured human skin fibroblasts; test: RNS suppression, total nitrate plus nitrite (Nox) generation, Greiss assay; type: cell-based; details: 60 μg/ml
Description: In addition to ROS activity, indoleacetyl phenylalanine was also tested against radical nitrogen species (RNS) in cultured human skin fibroblasts. To estimate suppression of RNS, total nitrate plus nitrite (Nox) generation was measured using the Greiss assay method. At a concentration of 60 μg/ml, indoleacetyl phenylalanine decreased RNS generation by 33% as compared to an untreated control.

Question: For O=C(Cc1c[nH]c2ccccc12)N[C@@H](Cc1ccccc1)C(=O)O [indoleacetyl phenylalanine], which “antioxidant activity toward ROS generation” value ([1]; 10% serum media, 15, 30, and 60 μM) is on record?
Answer: significant antioxidant activity

Question: What about the “antioxidant activity toward ROS generation” value ([1]; serum-free media, 7.5, 15, and 30 μM) of the same molecule?
Answer: exhibited antioxidant activity

Question: And the “antioxidant activity against t-BHP induced ROS activity” value (skin fibroblasts [2])?
Answer: showed antioxidant activity

Question: And the “effect on cell viability” value (skin fibroblasts [3])?
Answer: without affecting cell viability

Question: And the “suppression of iNOS, native state” value [4]?
Answer: suppressed iNOS

Question: What about the “suppression of iNOS gene expression activity, activated state” value ([4]; activated by 5 μM t-BHP) of the same molecule?
Answer: able to suppress iNOS gene expression activity

Question: And the “stimulation of cell proliferation compared to untreated controls” value (fibroblasts; MTT method)?
Answer: 30%

Question: What about the “lowest concentration giving dose-dependent fibroblast proliferation” value (fibroblasts; four-day incubation period) of the same molecule?
Answer: 2 µM

Question: What about the “gene expression for production of Cu/ZnSOD (protein amount)” value (Cu/ZnSOD) of the same molecule?
Answer: increased gene expression

Question: And the “anti-inflammatory effect, COX-2 inhibition” value (fibroblast COX-2 enzymes)?
Answer: inhibition of fibroblast COX-2 enzymes

Question: And the “gene expression for production of catalase (protein amount)” value (catalase)?
Answer: increased gene expression

Question: And the “decrease of RNS generation compared to untreated control” value [5]?
Answer: 33%

From patent publication US20050176804A1, “Method and material for free radical scavenging in human tissue” (priority 2003, published 2005)
